# From paper PMC3866693 (Journal of medicinal chemistry, 2013)
# Experiments:
# rat BZP site = assay: NIMH PDSP binding screen
# GABAA = assay: NIMH PDSP binding screen; parameters: species or system human
# NMDA = assay: NIMH PDSP binding screen; parameters: species or system human
# mGluR1 = mGluR1 (Rattus norvegicus, UniProt P23385); assay: stimulation of phosphoinositide hydrolysis, cloned rat receptors; format: cell-based; settings: 10 μM
# mGluR5 = mGluR5 (Rattus norvegicus, UniProt P31424); assay: as above; format: cell-based; settings: 10 μM
# human mGluR1 [1] = settings: read-out: IC50 (affinity for mGluR1); human mGluR1, reported; cited from earlier work
# [2] = compared with 7; cited from earlier work
# mGluR1 in monkey brain [3] = target: mGluR1 in monkey brain (Macaca mulatta, UniProt I2CU04); assay: PET preblock and challenge experiments with mGluR1 antagonist in rhesus monkey; format: in vivo, rhesus monkey (Macaca mulatta)
# mGluR1 in monkey brain [4] = assay: PET baseline experiment in rhesus monkey, brain radioactivity uptake; format: in vivo, rhesus monkey (Macaca mulatta)
# mGluR5 in monkey brain = mGluR5 in monkey brain (Macaca mulatta, UniProt A0ACM8QRY8); assay: PET challenge experiment with mGluR5-selective ligand in rhesus monkey; format: in vivo, rhesus monkey (Macaca mulatta); settings: 5 mg/kg i.v. at 30 min after [^18F]11, third monkey
# human mGluR1 [5] = settings: VS = fP × Bmax/KD; cited from earlier work
# rat mGluR1 = settings: VS = fP × Bmax/KD; cited from earlier work
# mGluR1 in monkey brain (Macaca mulatta, UniProt I2CU04), sequence (I2CU04 19-1195): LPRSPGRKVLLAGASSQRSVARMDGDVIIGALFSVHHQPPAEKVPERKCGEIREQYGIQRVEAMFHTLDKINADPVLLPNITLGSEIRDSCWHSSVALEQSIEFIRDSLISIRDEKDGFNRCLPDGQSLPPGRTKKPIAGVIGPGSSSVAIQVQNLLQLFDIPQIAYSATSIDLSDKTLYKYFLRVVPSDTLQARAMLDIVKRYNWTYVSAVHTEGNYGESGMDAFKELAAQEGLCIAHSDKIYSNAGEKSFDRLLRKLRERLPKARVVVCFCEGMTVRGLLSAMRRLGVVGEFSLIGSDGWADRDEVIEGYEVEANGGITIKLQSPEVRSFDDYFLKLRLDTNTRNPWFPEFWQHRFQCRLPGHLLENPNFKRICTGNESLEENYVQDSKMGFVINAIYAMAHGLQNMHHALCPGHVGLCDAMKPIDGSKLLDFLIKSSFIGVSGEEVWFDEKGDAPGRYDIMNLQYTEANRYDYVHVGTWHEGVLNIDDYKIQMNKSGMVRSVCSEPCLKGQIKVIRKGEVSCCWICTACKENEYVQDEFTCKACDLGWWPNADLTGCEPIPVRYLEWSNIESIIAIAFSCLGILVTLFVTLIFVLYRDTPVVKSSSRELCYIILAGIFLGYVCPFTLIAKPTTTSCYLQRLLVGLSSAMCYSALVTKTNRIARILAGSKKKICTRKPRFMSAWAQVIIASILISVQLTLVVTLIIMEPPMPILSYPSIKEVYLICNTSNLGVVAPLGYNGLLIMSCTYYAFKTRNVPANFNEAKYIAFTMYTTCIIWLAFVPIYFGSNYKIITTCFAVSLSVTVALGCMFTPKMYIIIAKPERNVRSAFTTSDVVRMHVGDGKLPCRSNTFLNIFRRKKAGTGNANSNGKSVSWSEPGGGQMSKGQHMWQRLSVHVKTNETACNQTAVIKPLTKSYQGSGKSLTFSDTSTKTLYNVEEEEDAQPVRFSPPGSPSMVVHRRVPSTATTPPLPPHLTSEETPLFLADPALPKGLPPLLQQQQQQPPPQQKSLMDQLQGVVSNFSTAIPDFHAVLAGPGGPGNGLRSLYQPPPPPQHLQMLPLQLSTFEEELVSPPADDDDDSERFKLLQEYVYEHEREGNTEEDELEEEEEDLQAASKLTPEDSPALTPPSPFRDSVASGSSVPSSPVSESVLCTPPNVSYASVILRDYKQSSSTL
# mGluR5 in monkey brain, sequence (A0ACM8QRY8 19-1212): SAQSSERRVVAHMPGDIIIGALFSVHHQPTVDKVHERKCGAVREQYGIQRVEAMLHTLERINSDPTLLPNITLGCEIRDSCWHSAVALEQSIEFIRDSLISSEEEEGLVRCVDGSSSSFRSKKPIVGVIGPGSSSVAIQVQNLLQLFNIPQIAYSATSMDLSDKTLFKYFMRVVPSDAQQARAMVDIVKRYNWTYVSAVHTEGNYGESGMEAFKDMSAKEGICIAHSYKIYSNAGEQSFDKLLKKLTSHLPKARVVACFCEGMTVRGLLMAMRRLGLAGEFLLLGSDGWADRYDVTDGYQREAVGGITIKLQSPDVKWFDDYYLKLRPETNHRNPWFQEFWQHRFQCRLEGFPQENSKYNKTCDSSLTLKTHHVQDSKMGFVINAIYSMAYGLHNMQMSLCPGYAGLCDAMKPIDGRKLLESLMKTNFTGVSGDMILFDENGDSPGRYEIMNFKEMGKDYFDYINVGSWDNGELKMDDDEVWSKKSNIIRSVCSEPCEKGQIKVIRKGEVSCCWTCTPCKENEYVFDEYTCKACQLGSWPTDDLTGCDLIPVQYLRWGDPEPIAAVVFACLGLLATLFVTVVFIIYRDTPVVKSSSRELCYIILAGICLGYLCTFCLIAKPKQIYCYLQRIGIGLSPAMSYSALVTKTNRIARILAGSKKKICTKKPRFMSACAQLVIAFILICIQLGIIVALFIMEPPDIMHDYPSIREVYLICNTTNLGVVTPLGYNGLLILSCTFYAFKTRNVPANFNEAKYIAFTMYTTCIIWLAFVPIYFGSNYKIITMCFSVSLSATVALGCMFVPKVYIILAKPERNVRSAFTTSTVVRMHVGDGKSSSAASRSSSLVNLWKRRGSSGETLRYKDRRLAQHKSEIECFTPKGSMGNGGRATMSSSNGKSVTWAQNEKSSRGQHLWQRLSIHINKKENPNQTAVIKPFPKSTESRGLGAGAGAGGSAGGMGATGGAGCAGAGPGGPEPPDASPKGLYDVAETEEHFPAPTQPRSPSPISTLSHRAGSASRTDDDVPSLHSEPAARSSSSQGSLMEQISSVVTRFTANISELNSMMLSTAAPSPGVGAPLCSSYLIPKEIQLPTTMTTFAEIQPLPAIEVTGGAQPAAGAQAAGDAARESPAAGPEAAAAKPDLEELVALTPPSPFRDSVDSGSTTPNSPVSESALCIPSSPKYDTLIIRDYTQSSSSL
# mGluR1, sequence (P23385 19-1199): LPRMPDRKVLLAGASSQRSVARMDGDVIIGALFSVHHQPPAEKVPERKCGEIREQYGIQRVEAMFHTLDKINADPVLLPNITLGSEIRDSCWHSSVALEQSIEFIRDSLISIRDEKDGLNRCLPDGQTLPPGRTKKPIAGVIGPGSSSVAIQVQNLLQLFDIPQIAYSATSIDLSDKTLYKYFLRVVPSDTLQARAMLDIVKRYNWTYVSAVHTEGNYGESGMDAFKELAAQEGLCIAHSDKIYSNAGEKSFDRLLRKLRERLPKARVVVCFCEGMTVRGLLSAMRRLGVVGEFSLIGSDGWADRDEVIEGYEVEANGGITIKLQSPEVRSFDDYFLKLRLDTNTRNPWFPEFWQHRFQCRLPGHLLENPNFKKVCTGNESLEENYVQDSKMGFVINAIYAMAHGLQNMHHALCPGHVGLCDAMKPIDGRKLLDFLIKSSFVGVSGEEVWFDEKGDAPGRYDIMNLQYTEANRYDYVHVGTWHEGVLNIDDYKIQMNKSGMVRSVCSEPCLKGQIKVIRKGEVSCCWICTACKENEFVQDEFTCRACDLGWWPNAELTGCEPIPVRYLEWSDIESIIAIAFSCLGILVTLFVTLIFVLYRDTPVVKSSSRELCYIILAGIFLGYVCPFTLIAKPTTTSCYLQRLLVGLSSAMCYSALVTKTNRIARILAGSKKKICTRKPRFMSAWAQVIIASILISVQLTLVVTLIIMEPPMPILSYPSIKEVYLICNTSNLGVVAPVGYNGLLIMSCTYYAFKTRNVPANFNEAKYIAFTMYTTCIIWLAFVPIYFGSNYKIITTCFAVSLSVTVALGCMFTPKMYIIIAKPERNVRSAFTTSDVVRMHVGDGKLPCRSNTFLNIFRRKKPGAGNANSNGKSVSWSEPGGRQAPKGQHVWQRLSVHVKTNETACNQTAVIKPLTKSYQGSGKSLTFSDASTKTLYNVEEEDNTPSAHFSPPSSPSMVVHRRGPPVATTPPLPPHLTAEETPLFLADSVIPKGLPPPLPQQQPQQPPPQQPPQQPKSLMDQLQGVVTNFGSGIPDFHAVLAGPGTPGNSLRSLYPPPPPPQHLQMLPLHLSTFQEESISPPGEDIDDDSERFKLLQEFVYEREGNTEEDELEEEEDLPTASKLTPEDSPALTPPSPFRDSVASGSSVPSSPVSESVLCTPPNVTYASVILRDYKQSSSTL
# mGluR5, sequence (P31424 21-1203): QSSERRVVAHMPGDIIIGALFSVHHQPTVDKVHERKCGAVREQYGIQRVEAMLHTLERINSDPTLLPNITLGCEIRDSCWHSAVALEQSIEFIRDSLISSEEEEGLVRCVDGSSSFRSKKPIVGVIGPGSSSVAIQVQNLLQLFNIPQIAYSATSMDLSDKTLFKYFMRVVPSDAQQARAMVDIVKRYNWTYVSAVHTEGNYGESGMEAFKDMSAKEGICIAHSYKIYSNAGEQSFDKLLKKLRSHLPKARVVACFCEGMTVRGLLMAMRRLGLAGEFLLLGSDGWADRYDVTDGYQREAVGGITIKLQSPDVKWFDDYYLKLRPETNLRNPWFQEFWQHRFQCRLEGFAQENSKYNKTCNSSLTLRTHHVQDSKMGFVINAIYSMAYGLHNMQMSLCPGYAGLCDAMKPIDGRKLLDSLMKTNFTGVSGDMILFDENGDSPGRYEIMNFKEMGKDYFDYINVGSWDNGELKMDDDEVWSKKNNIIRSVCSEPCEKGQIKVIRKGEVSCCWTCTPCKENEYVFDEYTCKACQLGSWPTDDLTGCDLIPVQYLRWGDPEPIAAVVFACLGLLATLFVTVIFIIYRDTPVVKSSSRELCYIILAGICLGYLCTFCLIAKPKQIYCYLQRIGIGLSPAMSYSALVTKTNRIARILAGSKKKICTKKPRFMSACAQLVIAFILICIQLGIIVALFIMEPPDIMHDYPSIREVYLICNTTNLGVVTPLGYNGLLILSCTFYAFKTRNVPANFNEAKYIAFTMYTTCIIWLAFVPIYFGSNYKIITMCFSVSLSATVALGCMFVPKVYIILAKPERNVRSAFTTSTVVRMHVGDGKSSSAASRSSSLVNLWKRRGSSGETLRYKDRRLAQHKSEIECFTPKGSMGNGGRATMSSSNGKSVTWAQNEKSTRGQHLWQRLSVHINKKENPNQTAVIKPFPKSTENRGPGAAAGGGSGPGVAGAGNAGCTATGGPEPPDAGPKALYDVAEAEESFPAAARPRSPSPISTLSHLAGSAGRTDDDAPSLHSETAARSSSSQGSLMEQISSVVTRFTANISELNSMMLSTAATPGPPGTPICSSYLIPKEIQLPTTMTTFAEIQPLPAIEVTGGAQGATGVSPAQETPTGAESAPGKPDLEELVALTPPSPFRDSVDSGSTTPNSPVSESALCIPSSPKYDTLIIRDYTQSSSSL
structure (smiles),measurement,setting,value
"CNc1cc(-c2csc(N(C)C(=O)c3ccc(F)cc3)n2)ncn1 [compound 11, 4-Fluoro-N-methyl-N-(4-(6-(methylamino)pyrimidin-4-yl)thiazol-2-yl)benzamide]",Ki,rat BZP site,> 10000 nM
same,Ki,GABAA,> 10000 nM
same,Ki,NMDA,> 10000 nM
same,efficacy at mGluR1 (stimulation of phosphoinositide hydrolysis),mGluR1,antagonist
same,efficacy at mGluR5 (stimulation of phosphoinositide hydrolysis),mGluR5,antagonist
same,IC50,human mGluR1 [1],1.8 nM
same,extent of metabolism in human liver microsomes,[2],metabolized more extensively than 7
"CC(C)Nc1cc(-c2csc(N(C)C(=O)c3ccc(F)cc3)n2)ncn1 [[^18F]7, reference compound]",IC50,human mGluR1 [1],5.1 nM
CO[C@H]1CC[C@@H](C(=O)c2ccc3nc4c(cc3c2)CCCO4)CC1 [compound 17],distribution of [^18F]11 radioactivity across brain after preblock,mGluR1 in monkey brain [3]; 3 mg/kg i.v. at 5 min before [^18F]11,low and uniform
same,effect on [^18F]11 brain radioactivity after challenge,"mGluR1 in monkey brain [3]; 3 mg/kg i.v. at 30 min after [^18F]11, second monkey",rapid decrease in radioactivity at all mGluR1-containing regions
"CNc1cc(-c2csc(N(C)C(=O)c3ccc([18F])cc3)n2)ncn1 [[^18F]11, [^18F]4-Fluoro-N-methyl-N-(4-(6-(methylamino)pyrimidin-4-yl)thiazol-2-yl)benzamide]",radiodefluorination (radioactivity uptake in skull),mGluR1 in monkey brain [4]; all PET experiments in monkey,negligible
same,decrease of cerebellum radioactivity from peak,"mGluR1 in monkey brain [4]; baseline, at end of 2-h scan (120 min)",47%
"Cc1nc(C#Cc2cccnc2)cs1 [compound 18, 3-((2-methyl-4-thiazolyl)ethynyl)pyridine]",effect on [^18F]11 brain washout kinetics after challenge,mGluR5 in monkey brain,no change in the washout kinetics from any brain region
Cc1c(-c2ccc(O[11CH3])cc2)nsc1NC(=O)[C@@H]1C[C@H]1C [[^11C]6],effective binding potential (VS),human mGluR1 [5],0.0161
same,effective binding potential (VS),rat mGluR1,0.683
